Results: the kinase profiling compilation of Christmann-Franck et al. (2016)
Where “and” joins values, the source holds several entries; their conditions need not be identical. Identical values can stand only once. One block for each compound: values may come before it.

What was measured:
Assay in all cases: Caliper, Mobility shift assay off-chip
MST1R (human) = MST1R (human) (UniProt Q04912)
NEK4 (human) = NEK4 (human) (UniProt P51957)
PRKD2 (human) = PRKD2 (human) (UniProt Q9BZL6)
PRKCB1 (human) = PRKCB1 (human) (UniProt P05771)
Sequence of PRKCB1 (human) (P05771 whole entry, looked up): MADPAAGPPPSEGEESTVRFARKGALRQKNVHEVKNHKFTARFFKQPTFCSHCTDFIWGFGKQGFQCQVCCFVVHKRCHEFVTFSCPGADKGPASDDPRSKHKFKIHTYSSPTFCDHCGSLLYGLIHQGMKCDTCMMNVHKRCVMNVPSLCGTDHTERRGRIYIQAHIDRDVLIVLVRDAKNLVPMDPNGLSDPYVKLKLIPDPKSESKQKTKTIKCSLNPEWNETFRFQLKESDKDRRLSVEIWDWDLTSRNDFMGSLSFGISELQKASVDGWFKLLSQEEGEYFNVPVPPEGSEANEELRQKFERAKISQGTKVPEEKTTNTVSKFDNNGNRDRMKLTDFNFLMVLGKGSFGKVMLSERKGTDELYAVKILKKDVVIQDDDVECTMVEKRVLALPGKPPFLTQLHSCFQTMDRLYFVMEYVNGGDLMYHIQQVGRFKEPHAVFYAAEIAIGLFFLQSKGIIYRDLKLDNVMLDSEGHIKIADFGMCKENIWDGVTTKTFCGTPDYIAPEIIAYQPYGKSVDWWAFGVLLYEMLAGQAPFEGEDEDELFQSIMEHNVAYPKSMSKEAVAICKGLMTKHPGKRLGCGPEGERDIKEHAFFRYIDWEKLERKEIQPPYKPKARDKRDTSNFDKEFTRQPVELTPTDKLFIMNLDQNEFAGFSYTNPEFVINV

RPS6KA5 KD1 KD2 (human) = RPS6KA5 KD1 KD2 (human) (UniProt O75582)
FER (human) = FER (human) (UniProt P16591)
SRPK2 (human) = SRPK2 (human) (UniProt P78362)
PTK6 (human) = PTK6 (human) (UniProt Q13882)
PASK (human) = PASK (human) (UniProt Q96RG2)
ROS1 (human) = ROS1 (human) (UniProt P08922)
Sequence of ROS1 (human) (P08922 whole entry, looked up): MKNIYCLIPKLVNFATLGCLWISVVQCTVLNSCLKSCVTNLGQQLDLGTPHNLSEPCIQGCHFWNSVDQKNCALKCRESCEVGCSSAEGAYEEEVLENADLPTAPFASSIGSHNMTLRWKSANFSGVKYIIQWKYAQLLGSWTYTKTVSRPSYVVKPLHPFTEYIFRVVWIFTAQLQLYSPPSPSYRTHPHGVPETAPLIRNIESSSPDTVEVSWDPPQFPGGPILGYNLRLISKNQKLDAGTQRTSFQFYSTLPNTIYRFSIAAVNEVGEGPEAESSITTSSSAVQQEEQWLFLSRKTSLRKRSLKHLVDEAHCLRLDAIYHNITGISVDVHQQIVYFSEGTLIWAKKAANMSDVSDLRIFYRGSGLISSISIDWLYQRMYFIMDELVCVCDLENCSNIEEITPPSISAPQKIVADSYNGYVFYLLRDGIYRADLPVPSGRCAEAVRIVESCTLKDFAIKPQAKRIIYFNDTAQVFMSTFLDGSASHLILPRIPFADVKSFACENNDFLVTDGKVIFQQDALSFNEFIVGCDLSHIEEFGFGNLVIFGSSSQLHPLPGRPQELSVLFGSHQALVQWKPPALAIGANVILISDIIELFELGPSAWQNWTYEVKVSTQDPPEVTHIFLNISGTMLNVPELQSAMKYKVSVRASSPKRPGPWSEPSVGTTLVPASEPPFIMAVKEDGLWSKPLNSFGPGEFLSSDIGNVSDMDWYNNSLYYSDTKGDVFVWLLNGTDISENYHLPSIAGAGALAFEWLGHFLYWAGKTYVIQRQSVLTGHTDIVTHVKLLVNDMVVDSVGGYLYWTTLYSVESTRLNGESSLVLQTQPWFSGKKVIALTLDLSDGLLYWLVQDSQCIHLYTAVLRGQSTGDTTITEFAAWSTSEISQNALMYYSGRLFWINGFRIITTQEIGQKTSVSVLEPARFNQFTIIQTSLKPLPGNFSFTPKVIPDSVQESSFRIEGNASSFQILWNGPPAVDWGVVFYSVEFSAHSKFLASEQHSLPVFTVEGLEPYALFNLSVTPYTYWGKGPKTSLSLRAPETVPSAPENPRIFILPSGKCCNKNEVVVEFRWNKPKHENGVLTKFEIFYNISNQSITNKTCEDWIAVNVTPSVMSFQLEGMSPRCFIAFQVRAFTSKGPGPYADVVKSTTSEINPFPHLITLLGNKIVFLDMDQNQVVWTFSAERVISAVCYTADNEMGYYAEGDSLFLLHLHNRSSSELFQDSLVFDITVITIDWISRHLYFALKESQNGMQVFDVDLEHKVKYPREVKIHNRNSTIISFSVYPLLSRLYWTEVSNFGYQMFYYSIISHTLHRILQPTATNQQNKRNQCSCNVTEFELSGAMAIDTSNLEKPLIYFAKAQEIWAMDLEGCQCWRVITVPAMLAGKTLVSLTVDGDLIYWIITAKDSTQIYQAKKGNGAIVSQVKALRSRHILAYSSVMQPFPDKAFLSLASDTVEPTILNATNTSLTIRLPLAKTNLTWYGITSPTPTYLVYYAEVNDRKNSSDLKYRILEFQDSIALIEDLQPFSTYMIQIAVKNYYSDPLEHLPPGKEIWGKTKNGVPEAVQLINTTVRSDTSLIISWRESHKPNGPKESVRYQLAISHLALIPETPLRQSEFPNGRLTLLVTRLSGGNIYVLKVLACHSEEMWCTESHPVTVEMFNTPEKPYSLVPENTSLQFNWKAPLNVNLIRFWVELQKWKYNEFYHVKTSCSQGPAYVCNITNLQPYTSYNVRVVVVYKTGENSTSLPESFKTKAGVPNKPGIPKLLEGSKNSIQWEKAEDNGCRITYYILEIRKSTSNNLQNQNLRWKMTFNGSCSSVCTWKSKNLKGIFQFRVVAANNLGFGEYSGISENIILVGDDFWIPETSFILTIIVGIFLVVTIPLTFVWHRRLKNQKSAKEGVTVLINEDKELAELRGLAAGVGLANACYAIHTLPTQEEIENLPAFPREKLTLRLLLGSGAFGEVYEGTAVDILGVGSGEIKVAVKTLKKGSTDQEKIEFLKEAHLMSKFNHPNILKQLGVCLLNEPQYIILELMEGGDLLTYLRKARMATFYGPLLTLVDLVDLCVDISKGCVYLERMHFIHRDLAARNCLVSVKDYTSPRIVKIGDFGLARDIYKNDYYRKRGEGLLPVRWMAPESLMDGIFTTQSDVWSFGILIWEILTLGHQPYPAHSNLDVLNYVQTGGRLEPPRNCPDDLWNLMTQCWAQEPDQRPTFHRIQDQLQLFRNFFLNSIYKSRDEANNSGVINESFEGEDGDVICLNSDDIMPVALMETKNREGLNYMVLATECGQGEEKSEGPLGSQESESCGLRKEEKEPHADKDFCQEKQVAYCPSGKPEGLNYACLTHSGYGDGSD

PRKD3 (human) = PRKD3 (human) (UniProt O94806)
EPHA8 (human) = EPHA8 (human) (UniProt P29322)
PTK2B (human) = PTK2B (human) (UniProt Q14289)
SPHK2 (human) = SPHK2 (human) (UniProt Q9NRA0)
CLK2 (human) = CLK2 (human) (UniProt P49760)
Sequence of CLK2 (human) (P49760 whole entry, looked up): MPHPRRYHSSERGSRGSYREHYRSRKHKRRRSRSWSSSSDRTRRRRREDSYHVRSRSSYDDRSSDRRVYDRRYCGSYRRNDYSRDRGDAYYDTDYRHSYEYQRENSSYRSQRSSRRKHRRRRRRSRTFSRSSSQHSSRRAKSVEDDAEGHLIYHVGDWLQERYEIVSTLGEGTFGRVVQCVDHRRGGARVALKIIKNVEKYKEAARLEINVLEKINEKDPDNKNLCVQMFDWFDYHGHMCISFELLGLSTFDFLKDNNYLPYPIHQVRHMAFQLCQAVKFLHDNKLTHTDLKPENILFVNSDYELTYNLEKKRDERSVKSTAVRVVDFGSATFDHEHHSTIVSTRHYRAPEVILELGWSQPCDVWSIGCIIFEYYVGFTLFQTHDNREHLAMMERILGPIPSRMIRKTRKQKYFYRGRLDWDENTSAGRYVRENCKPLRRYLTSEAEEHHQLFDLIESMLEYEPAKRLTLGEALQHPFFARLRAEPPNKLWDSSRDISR

INSR (human) = INSR (human) (UniProt P06213)
EPHA2 (human) = EPHA2 (human) (UniProt P29317)
PDK2 (human) = PDK2 (human) (UniProt Q15119)
ERBB2 (human) = ERBB2 (human) (UniProt P04626)
CSNK1D (human) = CSNK1D (human) (UniProt P48730)
EPHA3 (human) = EPHA3 (human) (UniProt P29320)
CDK1 (human) = CDK1 (human) (UniProt P06493)
Sequence of CDK1 (human) (P06493 whole entry, looked up): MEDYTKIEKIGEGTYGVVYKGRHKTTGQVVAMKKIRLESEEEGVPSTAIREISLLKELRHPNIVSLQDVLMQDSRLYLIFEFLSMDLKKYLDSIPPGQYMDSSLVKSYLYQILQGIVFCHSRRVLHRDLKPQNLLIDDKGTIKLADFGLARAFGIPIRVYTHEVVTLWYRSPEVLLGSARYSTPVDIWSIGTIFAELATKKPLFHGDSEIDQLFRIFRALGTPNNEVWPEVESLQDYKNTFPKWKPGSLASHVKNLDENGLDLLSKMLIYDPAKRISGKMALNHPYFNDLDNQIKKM

NTRK3 (human) = NTRK3 (human) (UniProt Q16288)
MKNK1 (human) = MKNK1 (human) (UniProt Q9BUB5)
HIPK2 (human) = HIPK2 (human) (UniProt Q9H2X6)
ROCK1 (human) = ROCK1 (human) (UniProt Q13464)
CSF1R (human) = CSF1R (human) (UniProt P07333)
MARK4 (human) = MARK4 (human) (UniProt Q96L34)
PHKG1 (human) = PHKG1 (human) (UniProt Q16816)
Sequence of PHKG1 (human) (Q16816 whole entry, looked up): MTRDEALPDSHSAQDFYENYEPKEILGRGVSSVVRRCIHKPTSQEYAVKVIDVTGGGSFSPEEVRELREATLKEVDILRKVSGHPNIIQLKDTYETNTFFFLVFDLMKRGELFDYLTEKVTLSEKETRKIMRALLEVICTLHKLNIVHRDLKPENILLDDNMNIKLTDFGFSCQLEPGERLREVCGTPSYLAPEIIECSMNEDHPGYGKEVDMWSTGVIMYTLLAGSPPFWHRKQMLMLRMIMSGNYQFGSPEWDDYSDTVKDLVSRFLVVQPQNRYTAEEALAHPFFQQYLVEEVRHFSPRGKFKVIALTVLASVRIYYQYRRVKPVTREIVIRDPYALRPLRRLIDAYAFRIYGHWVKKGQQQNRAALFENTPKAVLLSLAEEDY

TNK2 (human) = TNK2 (human) (UniProt Q07912)
SYK (human) = SYK (human) (UniProt P43405)
PRKG2 (human) = PRKG2 (human) (UniProt Q13237)
RPS6KA2 KD1 KD2 (human) = RPS6KA2 KD1 KD2 (human) (UniProt Q15349)
CHEK2 (human) = CHEK2 (human) (UniProt O96017)

Sequence of PRKD2 (human) (Q9BZL6 whole entry, looked up): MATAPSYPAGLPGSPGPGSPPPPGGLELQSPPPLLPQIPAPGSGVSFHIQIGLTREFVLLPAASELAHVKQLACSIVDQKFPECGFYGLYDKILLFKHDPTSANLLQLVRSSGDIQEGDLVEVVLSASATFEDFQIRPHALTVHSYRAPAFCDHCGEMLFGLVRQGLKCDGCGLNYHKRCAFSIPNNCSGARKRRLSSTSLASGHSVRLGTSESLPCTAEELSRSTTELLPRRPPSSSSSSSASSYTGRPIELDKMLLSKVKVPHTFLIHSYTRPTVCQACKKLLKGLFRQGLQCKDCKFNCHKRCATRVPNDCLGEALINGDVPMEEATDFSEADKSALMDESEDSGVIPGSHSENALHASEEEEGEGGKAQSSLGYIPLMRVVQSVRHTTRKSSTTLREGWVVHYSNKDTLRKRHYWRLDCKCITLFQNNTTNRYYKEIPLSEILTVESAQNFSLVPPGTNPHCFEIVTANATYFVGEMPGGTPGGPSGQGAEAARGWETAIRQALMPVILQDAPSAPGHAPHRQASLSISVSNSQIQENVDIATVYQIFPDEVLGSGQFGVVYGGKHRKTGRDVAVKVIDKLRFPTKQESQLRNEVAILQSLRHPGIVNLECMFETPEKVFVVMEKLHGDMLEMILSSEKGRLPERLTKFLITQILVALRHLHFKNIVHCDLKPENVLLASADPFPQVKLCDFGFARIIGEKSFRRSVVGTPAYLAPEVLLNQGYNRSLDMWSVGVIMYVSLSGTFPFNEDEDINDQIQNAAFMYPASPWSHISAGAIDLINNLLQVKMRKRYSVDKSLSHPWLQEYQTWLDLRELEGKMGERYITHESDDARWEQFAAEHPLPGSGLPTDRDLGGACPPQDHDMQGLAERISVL

inhibition (MST1R (human); compound 0.001 µM): 0.8%
inhibition (MST1R (human); compound 0.02 µM): 1.8%
inhibition (NEK4 (human); compound 0.001 µM): -5.5%
inhibition (NEK4 (human); compound 0.02 µM): -4.4%
inhibition (PRKD2 (human); compound 0.001 µM): -4.8%
inhibition (PRKD2 (human); compound 0.02 µM): -2.1%
inhibition (PRKCB1 (human); compound 0.001 µM): 4% and 4.9%
inhibition (RPS6KA5 KD1 KD2 (human); compound 0.001 µM): -6.2%
inhibition (RPS6KA5 KD1 KD2 (human); compound 0.02 µM): -7.1%
inhibition (FER (human); compound 0.001 µM): 5.9%
inhibition (FER (human); compound 0.02 µM): 3.9%
inhibition (SRPK2 (human); compound 0.001 µM): -9.3%
inhibition (SRPK2 (human); compound 0.02 µM): -6.5%
inhibition (PTK6 (human); compound 0.001 µM): -6%
inhibition (PTK6 (human); compound 0.02 µM): -4.8%
inhibition (PASK (human); compound 0.001 µM): -6.3%
inhibition (PASK (human); compound 0.02 µM): -0.6%
inhibition (ROS1 (human); compound 0.001 µM): -0.6%
inhibition (ROS1 (human); compound 0.02 µM): 10.8%
inhibition (PRKD3 (human); compound 0.001 µM): -4.3%
inhibition (PRKD3 (human); compound 0.02 µM): -1.6%
inhibition (EPHA8 (human); compound 0.001 µM): -5%
inhibition (EPHA8 (human); compound 0.02 µM): -4.7%
inhibition (PTK2B (human); compound 0.001 µM): -4.6%
inhibition (PTK2B (human); compound 0.02 µM): -1.4%
inhibition (SPHK2 (human); compound 0.001 µM): 2.8%
inhibition (SPHK2 (human); compound 0.02 µM): -4.8%
inhibition (CLK2 (human); compound 0.001 µM): -3.8%
inhibition (CLK2 (human); compound 0.02 µM): 5.8%
inhibition (INSR (human); compound 0.001 µM): -0.3%
inhibition (INSR (human); compound 0.02 µM): -8.6%
inhibition (EPHA2 (human); compound 0.001 µM): -8.3%
inhibition (EPHA2 (human); compound 0.02 µM): -6.2%
inhibition (PDK2 (human); compound 0.001 µM): -2.9%
inhibition (PDK2 (human); compound 0.02 µM): -4.8%
inhibition (ERBB2 (human); compound 0.001 µM): -1.2%
inhibition (ERBB2 (human); compound 0.02 µM): -1.4%
inhibition (CSNK1D (human); compound 0.001 µM): -5.3% and -6.3%
inhibition (CSNK1D (human); compound 0.02 µM): -5.2% and -5.3%
inhibition (EPHA3 (human); compound 0.001 µM): -7.7%
inhibition (EPHA3 (human); compound 0.02 µM): -4.2%
inhibition (CDK1 (human); compound 0.001 µM): -3.7%
inhibition (CDK1 (human); compound 0.02 µM): -3.5%
inhibition (NTRK3 (human); compound 0.001 µM): 2.6%
inhibition (NTRK3 (human); compound 0.02 µM): 12.9%
inhibition (MKNK1 (human); compound 0.001 µM): -6.1%
inhibition (MKNK1 (human); compound 0.02 µM): 4.1%
inhibition (HIPK2 (human); compound 0.001 µM): -4.6%
inhibition (HIPK2 (human); compound 0.02 µM): -0.1%
inhibition (ROCK1 (human); compound 0.001 µM): 5.8%
inhibition (ROCK1 (human); compound 0.02 µM): 0.7%
inhibition (CSF1R (human); compound 0.001 µM): 13.2%
inhibition (CSF1R (human); compound 0.02 µM): 22.8%
inhibition (MARK4 (human); compound 0.001 µM): -14.2%
inhibition (MARK4 (human); compound 0.02 µM): -4.7%
inhibition (PHKG1 (human); compound 0.001 µM): -7%
inhibition (PHKG1 (human); compound 0.02 µM): -4.4%
inhibition (TNK2 (human); compound 0.001 µM): -7.8%
inhibition (TNK2 (human); compound 0.02 µM): -8.8%
inhibition (SYK (human); compound 0.001 µM): -9.8%
inhibition (SYK (human); compound 0.02 µM): -8.9%
inhibition (PRKG2 (human); compound 0.001 µM): -4.8%
inhibition (PRKG2 (human); compound 0.02 µM): -6%
inhibition (RPS6KA2 KD1 KD2 (human); compound 0.001 µM): -0.7%
inhibition (RPS6KA2 KD1 KD2 (human); compound 0.02 µM): 6%
Structure (SMILES): CNC(=O)c1ccccc1Sc1ccc2c(/C=C/c3ccccn3)n[nH]c2c1

inhibition (MST1R (human); compound 0.2 µM): 6.4%
inhibition (MST1R (human); compound 4.0 µM): 48.8%
inhibition (NEK4 (human); compound 0.2 µM): -2.5%
inhibition (NEK4 (human); compound 4.0 µM): 8.9%
Ki (PRKD2 (human)): 52 nM
inhibition (PRKD2 (human); compound 0.2 µM): 65.6%
inhibition (PRKD2 (human); compound 4.0 µM): 97.9%
inhibition (PRKCB1 (human); compound 0.2 µM): 0% and -1.3%
inhibition (PRKCB1 (human); compound 4.0 µM): 20% and 27.2%
inhibition (RPS6KA5 KD1 KD2 (human); compound 0.2 µM): 18.2%
inhibition (RPS6KA5 KD1 KD2 (human); compound 4.0 µM): 73.3%
inhibition (FER (human); compound 0.2 µM): 78.8%
inhibition (FER (human); compound 4.0 µM): 102%
inhibition (SRPK2 (human); compound 0.2 µM): -0.5%
inhibition (SRPK2 (human); compound 4.0 µM): 21.1%
inhibition (PTK6 (human); compound 0.2 µM): 17.6%
inhibition (PTK6 (human); compound 4.0 µM): 82.3%
inhibition (PASK (human); compound 0.2 µM): -4%
inhibition (PASK (human); compound 4.0 µM): 17.8%
inhibition (ROS1 (human); compound 0.2 µM): 18.4%
inhibition (ROS1 (human); compound 4.0 µM): 81.4%
inhibition (PRKD3 (human); compound 0.2 µM): 63.7%
inhibition (PRKD3 (human); compound 4.0 µM): 97.5%
inhibition (EPHA8 (human); compound 0.2 µM): -0.2%
inhibition (EPHA8 (human); compound 4.0 µM): 27.7%
inhibition (PTK2B (human); compound 0.2 µM): 72.4%
inhibition (PTK2B (human); compound 4.0 µM): 101%
inhibition (CHEK2 (human); compound 0.2 µM): 78.8%
inhibition (CHEK2 (human); compound 4.0 µM): 98.8%
inhibition (SPHK2 (human); compound 0.2 µM): -6.9%
inhibition (SPHK2 (human); compound 4.0 µM): 4.7%
inhibition (CLK2 (human); compound 0.2 µM): 78.3%
inhibition (CLK2 (human); compound 4.0 µM): 97.2%
inhibition (EPHA2 (human); compound 0.2 µM): -1.9%
inhibition (EPHA2 (human); compound 4.0 µM): 24.9%
inhibition (PDK2 (human); compound 0.2 µM): -1.2%
inhibition (PDK2 (human); compound 4.0 µM): 26%
inhibition (ERBB2 (human); compound 0.2 µM): -3.2%
inhibition (ERBB2 (human); compound 4.0 µM): -2.9%
inhibition (CSNK1D (human); compound 4.0 µM): 86.1% and 97.8%
inhibition (EPHA3 (human); compound 0.2 µM): -0.2%
inhibition (EPHA3 (human); compound 4.0 µM): 21.2%
inhibition (CDK1 (human); compound 0.2 µM): -3%
inhibition (CDK1 (human); compound 4.0 µM): 16%
inhibition (MKNK1 (human); compound 0.2 µM): 7.4%
inhibition (MKNK1 (human); compound 4.0 µM): 30.3%
inhibition (HIPK2 (human); compound 0.2 µM): 74.2%
inhibition (HIPK2 (human); compound 4.0 µM): 99.3%
inhibition (ROCK1 (human); compound 0.2 µM): 8.9%
inhibition (ROCK1 (human); compound 4.0 µM): 55.4%
inhibition (CSF1R (human); compound 0.2 µM): 67.9%
inhibition (CSF1R (human); compound 4.0 µM): 98.9%
inhibition (MARK4 (human); compound 0.2 µM): 76.3%
inhibition (MARK4 (human); compound 4.0 µM): 100%
inhibition (PHKG1 (human); compound 0.2 µM): 91.8%
inhibition (PHKG1 (human); compound 4.0 µM): 96.9%
inhibition (TNK2 (human); compound 0.2 µM): 13.6%
inhibition (TNK2 (human); compound 4.0 µM): 76.8%
inhibition (PRKG2 (human); compound 0.2 µM): 9.3%
inhibition (PRKG2 (human); compound 4.0 µM): 65.5%
Structure (SMILES): CCN(CC)CCNC(=O)c1c(C)[nH]c(/C=C2\C(=O)Nc3ccc(F)cc32)c1C
